Measurements as given in PubChem BioAssay AID2060897 (Molecular Pharmacology Branch, DTP, NCI, 2025).

System: 966289-007-R4-J1-PDC complex spheroid viability
Assay: Anticancer human tumor 966289-007-R4-J1-PDC patient-derived pancreatic adenocarcinoma cell line growth inhibition [RAS]
Settings: for IC50: curve of first compound; for viability, T/C: stronger effect = lower value
Outline: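 Agents were tested in combination matrices in half-log decrements from a top concentration at or near clinical Cmax (10 microM if undetermined). Targets were multi-cell spheroids of tumour lines plus HUVEC and MSC stromal cells.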
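Further: spheroids exposed to agents for one week before readout.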
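Wherever viability, T/C is given: percent viability relative to DMSO vehicle control wells as 100%.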

`CCC(CC)c1cc(NC2CCC(N)C2)n2nccc2n1` (centres undefined) + C#Cc1c(F)ccc2cc(O)cc(-c3ncc4c(N5CC6CCC(C5)N6)nc(OCC56CCCN5CC(F)C6)nc4c3F)c12 showed an IC50 (second compound 0.0316 µM) of 1800 nM, an IC50 (second compound 0.1 µM) of 1870 nM and an IC50 (second compound 0.316 µM) of 1880 nM. The IC50 (second compound 1 µM) was 1880 nM, the IC50 (second compound 3.16 µM) was 1900 nM and the IC50 (second compound 10 µM) was 1810 nM. For the same molecule, the viability, T/C (second compound 0.0316 µM, first compound 0.0316 µM) was 99.4%, the viability, T/C (second compound 0.0316 µM, first compound 0.1 µM) was 87.7% and the viability, T/C (second compound 0.0316 µM, first compound 0.316 µM) was 97.2%. It also gave a viability, T/C (second compound 0.0316 µM, first compound 1 µM) of 111%, a viability, T/C (second compound 0.0316 µM, first compound 3.16 µM) of 2.83% and a viability, T/C (second compound 0.0316 µM, first compound 10 µM) of 2.78%. For the same molecule, the viability, T/C (second compound 0.1 µM, first compound 0.0316 µM) was 91.1%, the viability, T/C (second compound 0.1 µM, first compound 0.1 µM) was 97.8% and the viability, T/C (second compound 0.1 µM, first compound 0.316 µM) was 106%. For the same molecule, the viability, T/C (second compound 0.1 µM, first compound 1 µM) was 133%, the viability, T/C (second compound 0.1 µM, first compound 3.16 µM) was 2.38% and the viability, T/C (second compound 0.1 µM, first compound 10 µM) was 2.61%. The viability, T/C (second compound 0.316 µM, first compound 0.0316 µM) was 93%, the viability, T/C (second compound 0.316 µM, first compound 0.1 µM) was 95.1% and the viability, T/C (second compound 0.316 µM, first compound 0.316 µM) was 106%. The viability, T/C (second compound 0.316 µM, first compound 1 µM) was 137%, the viability, T/C (second compound 0.316 µM, first compound 3.16 µM) was 2.97% and the viability, T/C (second compound 0.316 µM, first compound 10 µM) was 2.55%. The viability, T/C (second compound 1 µM, first compound 0.0316 µM) was 90.4%, the viability, T/C (second compound 1 µM, first compound 0.1 µM) was 93.1% and the viability, T/C (second compound 1 µM, first compound 0.316 µM) was 116%. The viability, T/C (second compound 1 µM, first compound 1 µM) was 127%, the viability, T/C (second compound 1 µM, first compound 3.16 µM) was 2.97% and the viability, T/C (second compound 1 µM, first compound 10 µM) was 2.86%. It also gave a viability, T/C (second compound 3.16 µM, first compound 0.0316 µM) of 100%, a viability, T/C (second compound 3.16 µM, first compound 0.1 µM) of 94.9% and a viability, T/C (second compound 3.16 µM, first compound 0.316 µM) of 116%. The viability, T/C (second compound 3.16 µM, first compound 1 µM) was 126%, the viability, T/C (second compound 3.16 µM, first compound 3.16 µM) was 2.6% and the viability, T/C (second compound 3.16 µM, first compound 10 µM) was 2.57%. It also gave a viability, T/C (second compound 10 µM, first compound 0.0316 µM) of 86.1%, a viability, T/C (second compound 10 µM, first compound 0.1 µM) of 88.7% and a viability, T/C (second compound 10 µM, first compound 0.316 µM) of 111%. It also gave a viability, T/C (second compound 10 µM, first compound 1 µM) of 122%, a viability, T/C (second compound 10 µM, first compound 3.16 µM) of 0.62% and a viability, T/C (second compound 10 µM, first compound 10 µM) of 0.86%.

For `C=CC(=O)N1CCN(c2nc(OCC3CCCN3C)nc3c(F)c(-c4nc(N)cc(C)c4C(F)(F)F)c(Cl)cc23)C(C)C1` (centres undefined) + CCn1c(-c2cc(N3CCN(C)CC3)cnc2C(C)OC)c2c3cc(ccc31)-c1csc(n1)CC(NC(=O)C1CC1C)C(=O)N1CCCC(N1)C(=O)OCC(C)(C)C2, the IC50 (second compound 0.000949 µM) was > 1000 nM, the IC50 (second compound 0.003 µM) was > 1000 nM and the IC50 (second compound 0.00949 µM) was > 1000 nM. The IC50 (second compound 0.03 µM) was > 1000 nM, the IC50 (second compound 0.0949 µM) was > 1000 nM and the IC50 (second compound 0.3 µM) was > 1000 nM. For the same molecule, the viability, T/C (second compound 0.000949 µM, first compound 0.00316 µM) was 131%, the viability, T/C (second compound 0.000949 µM, first compound 0.01 µM) was 119% and the viability, T/C (second compound 0.000949 µM, first compound 0.0316 µM) was 138%. The viability, T/C (second compound 0.000949 µM, first compound 0.1 µM) was 69.5%, the viability, T/C (second compound 0.000949 µM, first compound 0.316 µM) was 77.9% and the viability, T/C (second compound 0.000949 µM, first compound 1 µM) was 94.2%. It also gave a viability, T/C (second compound 0.003 µM, first compound 0.00316 µM) of 115%, a viability, T/C (second compound 0.003 µM, first compound 0.01 µM) of 138% and a viability, T/C (second compound 0.003 µM, first compound 0.0316 µM) of 83.6%. For the same molecule, the viability, T/C (second compound 0.003 µM, first compound 0.1 µM) was 78.6%, the viability, T/C (second compound 0.003 µM, first compound 0.316 µM) was 85.3% and the viability, T/C (second compound 0.003 µM, first compound 1 µM) was 86.1%. For the same molecule, the viability, T/C (second compound 0.00949 µM, first compound 0.00316 µM) was 101%, the viability, T/C (second compound 0.00949 µM, first compound 0.01 µM) was 111% and the viability, T/C (second compound 0.00949 µM, first compound 0.0316 µM) was 105%. It also gave a viability, T/C (second compound 0.00949 µM, first compound 0.1 µM) of 74.1%, a viability, T/C (second compound 0.00949 µM, first compound 0.316 µM) of 90.3% and a viability, T/C (second compound 0.00949 µM, first compound 1 µM) of 94.4%. For the same molecule, the viability, T/C (second compound 0.03 µM, first compound 0.00316 µM) was 80.2%, the viability, T/C (second compound 0.03 µM, first compound 0.01 µM) was 124% and the viability, T/C (second compound 0.03 µM, first compound 0.0316 µM) was 108%. For the same molecule, the viability, T/C (second compound 0.03 µM, first compound 0.1 µM) was 82%, the viability, T/C (second compound 0.03 µM, first compound 0.316 µM) was 110% and the viability, T/C (second compound 0.03 µM, first compound 1 µM) was 87.7%. The viability, T/C (second compound 0.0949 µM, first compound 0.00316 µM) was 102%, the viability, T/C (second compound 0.0949 µM, first compound 0.01 µM) was 128% and the viability, T/C (second compound 0.0949 µM, first compound 0.0316 µM) was 98.3%. The viability, T/C (second compound 0.0949 µM, first compound 0.1 µM) was 104%, the viability, T/C (second compound 0.0949 µM, first compound 0.316 µM) was 125% and the viability, T/C (second compound 0.0949 µM, first compound 1 µM) was 103%. It also gave a viability, T/C (second compound 0.3 µM, first compound 0.00316 µM) of 79%, a viability, T/C (second compound 0.3 µM, first compound 0.01 µM) of 137% and a viability, T/C (second compound 0.3 µM, first compound 0.0316 µM) of 128%. For the same molecule, the viability, T/C (second compound 0.3 µM, first compound 0.1 µM) was 97.8%, the viability, T/C (second compound 0.3 µM, first compound 0.316 µM) was 135% and the viability, T/C (second compound 0.3 µM, first compound 1 µM) was 106%.
